Laboratory results published in ChEMBL document CHEMBL1201862, “PubChem BioAssay data set” (2004).
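These data come from cells grown in 96-well plates and exposed to compound for 48 hours at five concentrations. Abbreviation: GI50, concentration required for 50% inhibition of growth.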 Activity calls are given as the source filed them. Rule as the data show it: active = GI50 up to about 1.1 µM and inactive = higher.

Assays:
Assay in all cases: NCI tumour cell line growth inhibition, 48 h
[1] = test system: HCT-15
[2] = test system: SK-MEL-28
[3] = test system: SF-295
[4] = test system: MDA-MB-231
[5] = test system: M14
[6] = test system: KM12
[7] = test system: SF-268
[8] = test system: BT-549
[9] = test system: A498
[10] = test system: OVCAR-8
[11] = test system: HT-29
[12] = test system: Hs-578T
[13] = test system: DU-145
[14] = test system: HOP-92
[15] = test system: HCT-116
[16] = test system: HCC 2998
[17] = test system: RXF 393
[18] = test system: SK-MEL-5
[19] = test system: SK-OV-3
[20] = test system: SR
[21] = test system: Malme-3M
[22] = test system: OVCAR-4
[23] = test system: 786-0
[24] = test system: UO-31
[25] = test system: COLO 205
[26] = test system: ACHN
[27] = test system: NCI-H522
[28] = test system: A549
[29] = test system: T47D
[30] = test system: OVCAR-5
[31] = test system: NCI-H226
[32] = test system: MDA-N
[33] = test system: EKVX
[34] = test system: MOLT-4
[35] = test system: NCI-H460
[36] = test system: NCI-H23
[37] = test system: HL-60
[38] = test system: CCRF-CEM
[39] = test system: SNB-75
[40] = test system: UACC-62
[41] = test system: U-251
[42] = test system: LOX IMVI
[43] = test system: CAKI-1
[44] = test system: HOP-62
[45] = test system: NCI/ADR-RES
[46] = test system: UACC-257
[47] = test system: MCF7
[48] = test system: MDA-MB-435
[49] = test system: TK-10
[50] = test system: K562
[51] = test system: SN12C
[52] = test system: OVCAR-3
[53] = test system: SNB-19
[54] = test system: SW-620
[55] = test system: PC-3
[56] = test system: IGROV-1
[57] = test system: SK-MEL-2
[58] = test system: RPMI-8226
[59] = test system: SF-539

With `c1cc(-c2ccc(-c3ccc(-c4ccc(-c5ccncc5)o4)cc3)o2)ccn1` the GI50 [1] was 15.1 µM, the GI50 [2] was 21.2 µM (inactive) and the GI50 [3] was 15 µM (inactive). For the same molecule, the GI50 [4] was 29 µM (inactive), the GI50 [5] was 17.7 µM (inactive) and the GI50 [6] was 15.3 µM (inactive). The GI50 [7] was 20.7 µM (inactive), the GI50 [8] was 15.7 µM (inactive) and the GI50 [9] was > 100 µM (inactive). The GI50 [10] was 16.8 µM (inactive), the GI50 [11] was 11.8 µM (inactive) and the GI50 [12] was 64.1 µM (inactive). The GI50 [13] was 15 µM (inactive), the GI50 [14] was 30.5 µM (inactive) and the GI50 [15] was 16.1 µM (inactive). The GI50 [16] was 18.2 µM (inactive), the GI50 [17] was > 100 µM (inactive) and the GI50 [18] was 13.2 µM (inactive). For the same molecule, the GI50 [19] was 21.1 µM (inactive), the GI50 [20] was 24.1 µM (inactive) and the GI50 [21] was 19.8 µM (inactive). For the same molecule, the GI50 [22] was 14.9 µM (inactive), the GI50 [23] was 15.9 µM (inactive) and the GI50 [24] was 21.5 µM (inactive). For the same molecule, the GI50 [25] was 16.1 µM (inactive), the GI50 [26] was 24.6 µM (inactive) and the GI50 [27] was 15.3 µM (inactive). The GI50 [28] was 18.4 µM (inactive), the GI50 [29] was 11.4 µM (inactive) and the GI50 [30] was 24.9 µM (inactive). For the same molecule, the GI50 [31] was 27.4 µM (inactive), the GI50 [32] was 16.7 µM (inactive) and the GI50 [33] was 22.4 µM (inactive). For the same molecule, the GI50 [34] was 6.34 µM (inactive), the GI50 [35] was 15.2 µM (inactive) and the GI50 [36] was 16.9 µM (inactive). The GI50 [37] was 18.5 µM (inactive), the GI50 [38] was 5.68 µM (inactive) and the GI50 [39] was 18.9 µM (inactive). The GI50 [40] was 17.9 µM (inactive), the GI50 [41] was 17.5 µM (inactive) and the GI50 [42] was 21.4 µM (inactive). The GI50 [43] was 21.4 µM (inactive), the GI50 [44] was 22.1 µM (inactive) and the GI50 [45] was 31.2 µM (inactive). The GI50 [46] was 15.8 µM (inactive), the GI50 [47] was 18.8 µM (inactive) and the GI50 [48] was 15.5 µM (inactive). The GI50 [49] was 17 µM (inactive), the GI50 [50] was 15.7 µM (inactive) and the GI50 [51] was 22.4 µM (inactive). For the same molecule, the GI50 [52] was 23 µM (inactive), the GI50 [53] was 18.5 µM (inactive) and the GI50 [54] was 28.2 µM (inactive). For the same molecule, the GI50 [55] was 18.7 µM (inactive) and the GI50 [56] was 19.1 µM (inactive).

With `CN(CCc1ccc(Cl)c(Cl)c1)[C@H]1CCCC[C@H]1N1CCCC1` the GI50 [1] was over 100 µM, the GI50 [2] was > 100 µM (inactive) and the GI50 [57] was > 100 µM (inactive). The GI50 [3] was > 100 µM (inactive), the GI50 [4] was > 100 µM (inactive) and the GI50 [5] was > 100 µM (inactive). The GI50 [6] was > 100 µM (inactive), the GI50 [58] was > 100 µM (inactive) and the GI50 [7] was > 100 µM (inactive). The GI50 [8] was > 100 µM (inactive), the GI50 [9] was > 100 µM (inactive) and the GI50 [10] was > 100 µM (inactive). For the same molecule, the GI50 [11] was > 100 µM (inactive), the GI50 [12] was > 100 µM (inactive) and the GI50 [13] was > 100 µM (inactive). The GI50 [14] was > 100 µM (inactive), the GI50 [15] was > 100 µM (inactive) and the GI50 [16] was > 100 µM (inactive). The GI50 [17] was > 100 µM (inactive), the GI50 [18] was > 100 µM (inactive) and the GI50 [19] was > 100 µM (inactive). For the same molecule, the GI50 [20] was > 100 µM (inactive), the GI50 [21] was > 100 µM (inactive) and the GI50 [22] was > 100 µM (inactive). For the same molecule, the GI50 [23] was > 100 µM (inactive), the GI50 [24] was > 100 µM (inactive) and the GI50 [25] was > 100 µM (inactive). The GI50 [26] was > 100 µM (inactive), the GI50 [27] was > 100 µM (inactive) and the GI50 [28] was > 100 µM (inactive). For the same molecule, the GI50 [29] was > 100 µM (inactive), the GI50 [30] was > 100 µM (inactive) and the GI50 [31] was > 100 µM (inactive). The GI50 [32] was > 100 µM (inactive), the GI50 [33] was > 100 µM (inactive) and the GI50 [34] was > 100 µM (inactive). The GI50 [36] was > 100 µM (inactive), the GI50 [37] was > 100 µM (inactive) and the GI50 [40] was > 100 µM (inactive). For the same molecule, the GI50 [41] was > 100 µM (inactive), the GI50 [42] was > 100 µM (inactive) and the GI50 [43] was > 100 µM (inactive). For the same molecule, the GI50 [44] was > 100 µM (inactive), the GI50 [45] was > 100 µM (inactive) and the GI50 [46] was > 100 µM (inactive). For the same molecule, the GI50 [47] was > 100 µM (inactive), the GI50 [48] was > 100 µM (inactive) and the GI50 [49] was > 100 µM (inactive). The GI50 [50] was > 100 µM (inactive), the GI50 [51] was > 100 µM (inactive) and the GI50 [52] was > 100 µM (inactive). For the same molecule, the GI50 [53] was > 100 µM (inactive), the GI50 [54] was > 100 µM (inactive) and the GI50 [55] was > 100 µM (inactive). For the same molecule, the GI50 [56] was > 100 µM (inactive).

With `O=C(NC12CC3CC(CC(C3)C1)C2)n1cnc2cncnc21` the GI50 [1] was 27.7 µM, the GI50 [2] was > 100 µM (inactive) and the GI50 [57] was 18.2 µM (inactive). The GI50 [3] was 21.6 µM (inactive), the GI50 [4] was 70 µM (inactive) and the GI50 [5] was 54.7 µM (inactive). The GI50 [6] was 30.8 µM (inactive), the GI50 [58] was 22.5 µM (inactive) and the GI50 [7] was 53.5 µM (inactive). The GI50 [8] was 46.8 µM (inactive), the GI50 [9] was 65.9 µM (inactive) and the GI50 [10] was 30.1 µM (inactive). The GI50 [11] was 28.4 µM (inactive), the GI50 [12] was 54.6 µM (inactive) and the GI50 [13] was 25.6 µM (inactive). The GI50 [14] was 28.2 µM (inactive), the GI50 [15] was 32.7 µM (inactive) and the GI50 [16] was 35.6 µM (inactive). The GI50 [17] was 26.5 µM (inactive), the GI50 [18] was 16.1 µM (inactive) and the GI50 [19] was 17.8 µM (inactive). For the same molecule, the GI50 [20] was 24.4 µM (inactive), the GI50 [21] was 26 µM (inactive) and the GI50 [23] was 50.1 µM (inactive). The GI50 [24] was 91.2 µM (inactive), the GI50 [25] was 20.6 µM (inactive) and the GI50 [26] was 34.8 µM (inactive). The GI50 [27] was 16.1 µM (inactive), the GI50 [28] was 47.5 µM (inactive) and the GI50 [29] was 20.6 µM (inactive). For the same molecule, the GI50 [30] was 34.3 µM (inactive), the GI50 [32] was 33.5 µM (inactive) and the GI50 [33] was 37.6 µM (inactive). For the same molecule, the GI50 [34] was 33.3 µM (inactive), the GI50 [35] was 32.3 µM (inactive) and the GI50 [36] was 37.8 µM (inactive). For the same molecule, the GI50 [37] was 28.7 µM (inactive), the GI50 [38] was 26.5 µM (inactive) and the GI50 [39] was 44.5 µM (inactive). For the same molecule, the GI50 [40] was 39.2 µM (inactive), the GI50 [41] was 35.3 µM (inactive) and the GI50 [42] was 25.8 µM (inactive). For the same molecule, the GI50 [43] was 28.4 µM (inactive), the GI50 [44] was 18.2 µM (inactive) and the GI50 [45] was 28.6 µM (inactive). For the same molecule, the GI50 [46] was 56.5 µM (inactive), the GI50 [47] was 27.5 µM (inactive) and the GI50 [48] was 31.3 µM (inactive). The GI50 [49] was 30.2 µM (inactive), the GI50 [50] was 35.1 µM (inactive) and the GI50 [51] was 36 µM (inactive). The GI50 [59] was 25.1 µM (inactive), the GI50 [52] was 18.2 µM (inactive) and the GI50 [53] was 93.3 µM (inactive). The GI50 [54] was 39.8 µM (inactive), the GI50 [55] was 25.8 µM (inactive) and the GI50 [56] was 26.6 µM (inactive).
